Data set [1] deals with beagle dogs. As to conditions: dog, in vivo, iv, 12.5 mg/kg.
Experimental: (§1) Formal toxicology studies of intravenously administered isatoribine and orally administered isatoribine and val-isatoribine were conducted in beagle dogs.
(§2) In each case the compound was administered as a solution, by gavage or by intravenous infusion. Multiple parameters were assessed, as is customary in a toxicology study. In the studies providing higher potential exposure to isatoribine, the plasma concentration of isatoribine was assessed by a LC/MS method.
Data set [2] is described as follows: Toxicology studies in beagle dogs (GI tolerance). As to conditions: beagle, dog, iv; for AUC(0-t): plasma.
Experimental: as §1, §2
Data set [3] deals with beagle dogs. The experiment in a line: Toxicology studies in beagle dogs (GI tolerance). As to conditions: dogs.
Experimental: as §1, §2
In data set [4] the test system is interferon alpha (Mu-IFN-α). Description: Murine interferon alpha in plasma of dosed mice. The class given is in vivo. An excerpt:
The normal mouse provides a useful system for the assessment of the degree to which the inventions described herein provide material improvement in the oral delivery of 1 (isatoribine). Not only can one measure the plasma concentrations of isatoribine arising from oral administration of the said prodrug(s) but also the extensive immunological research conducted in the mouse has provided reagents suitable for measuring the levels of interferon alpha, a cytokine of interest reflecting one of the desired biologic activities of isatoribine.
Table 1 records the results of an assay for murine interferon alpha in the plasma of mice that were dosed two times with isatoribine, formulated in bicarbonate, at a level of 50 mg/kg by the oral route.
Table 2 records the results of assays for murine interferon alpha in the plasma of mice that first were dosed with bicarbonate and then four hours later were dosed orally with isatoribine, formulated in bicarbonate, at a level of 50 mg/kg. Interferon was reported in the plasma from four mice, including two that had received the bicarbonate vehicle dose.
Table 3 records the results of assays for murine interferon alpha in the plasma of mice that were dosed orally with val-isatoribine, dissolved in bicarbonate, at a dose that is equivalent to 50/mg/kg of isatoribine on a molar basis. […] Interferon was detected in all mice assayed at a given time point, indicating the reliability of the effect following val-isatoribine administration.
In other experiments, plasma levels of isatoribine and interferon alpha were measured in mice that were dosed with isatoribine by the intravenous route, and these levels were compared to the levels of isatoribine and interferon alpha arising after oral administration of val-isatoribine. […] Thus, oral val-isatoribine provides levels of isatoribine and interferon that are approximately 50% of those observed after intravenous administration of isatoribine itself.

Data set [5] in a line: Recovery of 1 in urine after intravenous administration. The class given is in vivo. Conditions: read-out: recovery of administered dose in the urine as intact 1. The protocol: Reference values for compound I were obtained by similar procedures after either oral or intravenous dosing. […] For this reason, in some experiments the amount of 1 in urine collected over a period of 24 hours after dosing was used to assess compounds.

Data set [6] relates to beagle dogs. Conditions: cited from earlier work.
The nature of data set [7]: in vivo. Conditions: beagle, dog, iv, 12.5 mg/kg.
Experimental: as §1, §2
The mark [8] stands for this setting: IV Isatoribine, applied dose 25 mg/kg.
The mark [9] stands for this setting: dogs, Oral Isatoribine, applied dose 2.5 mg/kg.

Where two headings read alike, the source gives them in different places.

Regarding `Nc1nc2c(sc(=O)n2[C@@H]2O[C@H](CO)[C@@H](O)[C@H]2O)c(=O)[nH]1` [Compound 1, 5-amino-3-β-D-ribofuranosylthiazolo[4,5-d]pyrimidine-2,7-dione, reference compound], the “Emesis or loose stool” value in data set [1], in data set [3] (setting [8]) and in data set [6] (setting [9]) was “Neg” each time. Besides, the “GI lesions or irritation” value is reported as “Neg” in data set [1]; “Neg” in data set [3] (setting [8]); “Neg” in data set [3] (IV Isatoribine, applied dose 50 mg/kg); “Neg” in data set [3] (IV Isatoribine, applied dose 100 mg/kg); “Neg” in data set [6] (setting [9]); “Neg” in data set [6] (dogs, Oral Isatoribine, applied dose 5 mg/kg). Besides, the NOAEL in data set [2] (in vivo) stood at 12.5 mg/kg. Moreover, the AUC(0-t) in data set [2] (25 mg/kg) stood at 42800 ng·h/mL; in data set [2] (50 mg/kg) it was 87800 ng·h/mL; in data set [2] (100 mg/kg), 209000 ng·h/mL; in data set [7], 19500 ng·h/mL. The “GI lesions” value in data set [3] (intravenous, necropsy or histopathologic evaluation) is “No lesions were seen in the GI tract”. Also, the “interferon in plasma” value in data set [4] (mice, two oral 50 mg/kg doses, interval four hours) is reported as “no interferon was measurable”. The “mice with interferon detected in plasma” value in data set [4] (oral dosing, studies of Tables 1-3) was 4 of the 114. Besides, in data set [5], the dose excreted was greater than 75%. Besides, in data set [6] (dog, in vivo, po), the limiting toxicity result was “gastrointestinal lesions”. For the same compound, the “dogs with multiple, scattered red lesions on the intestinal mucosa” value in data set [6] (oral, 10 mg/kg, gross histopathologic evaluation) is given as “four of eight dogs”.

What is called NOAEL is the highest tested level that showed no adverse finding. As a reminder, the AUC(0-t) is the area under the concentration-time curve up to a stated or last time point.

(Values after patent US20080070852A1, “3-Beta-D-Ribofuranosylthiazolo[ 4,5-D] Pyridimine Nucleosides and Uses Thereof” (priority 2004, published 2008).)
